Assay results published in paper PMC8330742, “New benzothieno[2,3-c]pyridines as non-steroidal CYP17 inhibitors: design, synthesis, anticancer screening, apoptosis induction, and in silico ADME profile studies” (Journal of Enzyme Inhibition and Medicinal Chemistry, 2021).
Where two headings read alike, the source gives them in different places.

Experiments:
T-47D = assay: NCI-60 SRB screen; assay type: cell-based, human; conditions: Homo sapiens, T47D, single dose 10^−5 M, read-out: Growth inhibition (%)
CAKI-1 = assay: NCI-60 SRB screen; assay type: cell-based, human; conditions: Homo sapiens, single dose 10^−5 M, read-out: Growth inhibition (%)
MCF7 = assay: NCI-60 SRB screen; assay type: cell-based, human; conditions: Homo sapiens, read-out: Growth inhibition (%)
[1] = system: renal cancer cell line (UO-31); assay: MTT cytotoxicity assay; assay type: cell-based, human
Description: (§1) The MTT method for monitoring in vitro cytotoxicity was used with multiwell plates. Three human cell lines, namely prostate cancer cell line (PC-3), renal cancer cell line (UO-31), and breast cancer cell line (MCF-7) were obtained from the American Type Culture Collection ATCC, Manassas, VA, USA). The cells were trypsinized and seeded in 96 well plates with a density of 1.2 − 1.8 × 10,000 cells/well for 24 h at 37 °C. After treating the cells with five concentrations of compound 5c (0.01, 0.1, 1, 10, 100 µM), an MTT solution (Sigma Co., St. Louis, MO, USA) (5 mg/mL in phosphate buffer solution) was applied to each well and […]. The plates were cultivated in 5% CO2 for 4 h at 37 °C. Successively, the remaining formazan crystals were dissolved in 100 µl of DMSO, and the absorbance was determined with the ROBONIK P2000 spectrophotometer at a wavelength of 570 nm. The obtained values were analysed using Gen5 software (BioTek, UK). The proliferation percentage in each treated cell line was standardised based on their control wells. Both tests have been conducted in triplicate. The IC50 values were calculated using sigmoidal dose-response curve fitting models. […] Each test included a blank containing a complete medium without cells.

[2] = system: breast cancer cell line (MCF-7); assay: MTT cytotoxicity assay; assay type: cell-based, human
Description: as §1

[3] = system: prostate cancer cell line (PC-3); assay: MTT cytotoxicity assay; assay type: cell-based, human
Description: as §1

A498 = assay: NCI-60 SRB screen; assay type: cell-based, human; conditions: Homo sapiens, single dose 10^−5 M, read-out: Growth inhibition (%)
HOP-92 = assay: NCI-60 SRB screen; assay type: cell-based, human; conditions: Homo sapiens, single dose 10^−5 M, read-out: Growth inhibition (%)
PC-3 = assay: NCI-60 SRB screen; assay type: cell-based, human; conditions: Homo sapiens, single dose 10^−5 M, read-out: Growth inhibition (%)
DU-145 = assay: NCI-60 SRB screen; assay type: cell-based, human; conditions: Homo sapiens, single dose 10^−5 M, read-out: Growth inhibition (%)
OVCAR-5 = assay: NCI-60 SRB screen; assay type: cell-based, human; conditions: Homo sapiens, single dose 10^−5 M, read-out: Growth inhibition (%)
BT-549 = assay: NCI-60 SRB screen; assay type: cell-based, human; conditions: Homo sapiens, single dose 10^−5 M, read-out: Growth inhibition (%)
MDA-MB-231/ATCC = assay: NCI-60 SRB screen; assay type: cell-based, human; conditions: Homo sapiens, single dose 10^−5 M, read-out: Growth inhibition (%)
MDA-MB-468 = assay: NCI-60 SRB screen; assay type: cell-based, human; conditions: Homo sapiens, single dose 10^−5 M, read-out: Growth inhibition (%)
RPMI-8226 = assay: NCI-60 SRB screen; assay type: cell-based; conditions: Homo sapiens, single dose 10^−5 M, read-out: Growth inhibition (%)
SNB-19 = assay: NCI-60 SRB screen; assay type: cell-based; conditions: Homo sapiens; single dose 10^−5 M; SNB-19, CNS cancer; read-out: Growth inhibition (%)
U251 = assay: NCI-60 SRB screen; assay type: cell-based, human; conditions: Homo sapiens, U-251; single dose 10^−5 M; U251, CNS cancer; read-out: Growth inhibition (%)
SF-539 = assay: NCI-60 SRB screen; assay type: cell-based, human; conditions: Homo sapiens; single dose 10^−5 M; SF-539, CNS cancer; read-out: Growth inhibition (%)
SNB-75 = assay: NCI-60 SRB screen; assay type: cell-based, human; conditions: Homo sapiens; single dose 10^−5 M; SNB-75, CNS cancer; read-out: Growth inhibition (%)
[4] = single dose 10^−5 M, MCF-7, Breast cancer
[5] = HOP-92, Non-small cell lung carcinoma

Structure (SMILES)	inhibition at 10 µM (T-47D) [%]	inhibition at 10 µM (CAKI-1; CAKI-1) [%]	inhibition at 10 µM (MCF7; MCF-7, single dose 10^−5 M) [%]	melting point [°C]	inhibition at 10 µM (T-47D; Breast cancer) [%]	inhibition at 10 µM (CAKI-1; CAKI-1, Renal cancer) [%]	inhibition at 10 µM (MCF7; [4]) [%]	inhibition at 10 µM (A498; A498, Renal cancer) [%]	inhibition at 10 µM (SNB-19) [%]	inhibition at 10 µM (HOP-92; [5]) [%]	inhibition at 10 µM (PC-3; PC-3, Prostate cancer) [%]	inhibition at 10 µM (DU-145; DU-145, Prostate cancer) [%]	inhibition at 10 µM (RPMI-8226; RPMI-8226, Leukaemia) [%]	inhibition at 10 µM (OVCAR-5; OVCAR-5, Ovarian cancer) [%]	inhibition at 10 µM (U251) [%]	inhibition at 10 µM (BT-549; BT-549, Breast cancer) [%]	inhibition at 10 µM (SF-539) [%]	inhibition at 10 µM (MDA-MB-231/ATCC; MDA-MB 231/ATCC, Breast cancer) [%]	inhibition at 10 µM (SNB-75) [%]	inhibition at 10 µM (MDA-MB-468; MDA-MB-468, Breast cancer) [%]	also measured
COc1ccc(C2NC(=O)C(C#N)c3c2sc2c(F)cccc32)c(OC)c1 (stereo not shown) [Compound 5a, 1-(2,4-Dimethoxyphenyl)-4-cyano-8-fluoro-1,2-dihydro[1]benzothieno [2,3-c]pyridin-3(4H)-one]	38.3	78.7	75.5	100 to 102	–	–	–	–	–	–	–	–	–	–	–	–	–	–	–	–	potency compared to staurosporine [1]: weak activity; potency compared to staurosporine [2]: moderate activity; potency compared to staurosporine [3]: moderate activity; inhibition at 10 µM (A498; A498): 74.8%; inhibition at 10 µM (HOP-92; HOP-92): 57.8%; inhibition at 10 µM (PC-3; PC-3): 43.2%; inhibition at 10 µM (DU-145; DU-145): 9.51%; inhibition at 10 µM (OVCAR-5; OVCAR-5): 1.24%; inhibition at 10 µM (BT-549; BT-549): 78.6%; inhibition at 10 µM (MDA-MB-231/ATCC; MDA-MB-231, MDAMB231/ATCC): 27.3%; inhibition at 10 µM (MDA-MB-468; MDA-MB-468): 75.7%
COc1ccc(C2NC(=O)C(C#N)c3c2sc2c(F)cccc32)cc1 (stereo not shown) [Compound 5b, 4-Cyano-8-fluoro-1-(4-methoxyphenyl)-1,2-dihydro[1]benzothieno[2,3-c] pyridin-3(4H)-one]	19.9	60	67.4	103 to 105	–	–	–	–	–	–	–	–	–	–	–	–	–	–	–	–	potency compared to staurosporine [1]: moderate activity; potency compared to staurosporine [2]: moderate activity; potency compared to staurosporine [3]: moderate activity; inhibition at 10 µM (A498; A498): 68.8%; inhibition at 10 µM (HOP-92; HOP-92): 45.9%; inhibition at 10 µM (PC-3; PC-3): 50.6%; inhibition at 10 µM (DU-145; DU-145): 35.2%; inhibition at 10 µM (RPMI-8226; RPMI-8226): 36.9%; inhibition at 10 µM (OVCAR-5; OVCAR-5): 14.4%; inhibition at 10 µM (BT-549; BT-549): 44.6%; inhibition at 10 µM (MDA-MB-231/ATCC; MDA-MB-231, MDAMB231/ATCC): 28.8%; inhibition at 10 µM (MDA-MB-468; MDA-MB-468): 66.3%
O=[N+]([O-])c1cccc(C2NC(N3CCOCC3)=C(Cl)c3c2sc2c(F)cccc32)c1 (stereo not shown) [Compound 8b, 4-Chloro-3-(4-morpholino)-8-fluoro-1-(3-nitrophenyl)-1,2-dihydro [1]benzothieno[2,3-c]pyridine]	–	–	–	175 to 177	20.8	32.5	21	10.4	1.4	22.2	14.5	-1.71	16.2	8.49	6.85	4.09	6.36	18.8	10.4	1.73	–
N#CC1=C(N2CCCCC2)NC(c2cccc([N+](=O)[O-])c2)c2sc3c(F)cccc3c21 (stereo not shown) [Compound 8f, 4-Cyano-3-(piperidin-1-yl)-8-fluoro-1-(3-nitrophenyl)-1,2-dihydro [1]benzothieno[2,3-c]pyridine]	–	–	–	280 to 282	2.45	28.7	-0.95	-0.87	1.38	4.9	8.87	-8.32	14.9	5.19	-6.11	1.03	6.49	15.1	5.45	-8.03	–
O=[N+]([O-])c1cccc(C2NC3=C(Nc4ccccc4N3)c3c2sc2c(F)cccc32)c1 (stereo not shown) [Compound 9, 9-Fluoro-7-(3-nitrophenyl)-5,6,7,13-tetrahydro[1]benzothieno[3′,2′:4,5]-pyrido[2,3-b]quinoxaline]	–	–	–	160 to 162	-5.91	28.3	1.91	-0.12	-0.03	-1.53	7.47	-11.4	12.1	3.15	-3.59	5.02	3.93	17.8	10.2	-10.6	–
